Test results from patent publication US7902327B2, “Dendrimeric peptides, pharmaceutical compositions and methods of using the same” (New York University School of Medicine, priority 2007, dated 2011).
Values after ≈ are worked out from the molar mass of the structure shown. Where a SMILES comes first, the peptide text is derived from it. Side-chain parts run from the residue outwards. [ ]: non-standard residue; d: D form. The star is where a group is joined. Lys(α,ε-(ArgTrp)2) = N=C(N)NCCC[C@H](N)C(=O)N[C@@H](Cc1c[nH]c2ccccc12)C(=O)NCCCC[C@H](NC(=O)[C@H](Cc1c[nH]c2ccccc12)NC(=O)[C@@H](N)CCCNC(=N)N)C(=O)*; NHBn = c1ccc(CN*)cc1; OBn = c1ccc(CO*)cc1; X1 = CCCCCCCCCN*; βAla = NCCC(=O)O

These compounds were tested on E. faecalis (29212). Conditions: 29212.

| SMILES | MIC50 E. faecalis |
| --- | --- |
| N=C(N)NCCC[C@H](N)C(=O)N[C@@H](Cc1c[nH]c2ccccc12)C(=O)NCCCC[C@H](NC(=O)[C@H](Cc1c[nH]c2ccccc12)NC(=O)[C@@H](N)CCCNC(=N)N)C(=O)NCCCC[C@H](NC(=O)[C@H](CCCCNC(=O)[C@H](Cc1c[nH]c2ccccc12)NC(=O)[C@@H](N)CCCNC(=N)N)NC(=O)[C@H](Cc1c[nH]c2ccccc12)NC(=O)[C@@H](N)CCCNC(=N)N)C(=O)NCCC(=O)NCc1ccccc1 [(RW)4D-Benzyl amine] (H-RWK([Trp-Arg])K(Lys(α,ε-(ArgTrp)2))[βAla]-NHBn) | 5.1 µg/mL (≈ 2.64 µM) |
| N=C(N)NCCC[C@H](N)C(=O)N[C@@H](Cc1c[nH]c2ccccc12)C(=O)NCCCC[C@H](NC(=O)[C@H](Cc1c[nH]c2ccccc12)NC(=O)[C@@H](N)CCCNC(=N)N)C(=O)NCCCC[C@H](NC(=O)[C@H](CCCCNC(=O)[C@H](Cc1c[nH]c2ccccc12)NC(=O)[C@@H](N)CCCNC(=N)N)NC(=O)[C@H](Cc1c[nH]c2ccccc12)NC(=O)[C@@H](N)CCCNC(=N)N)C(=O)NCCC(=O)OCc1ccccc1 [(RW)4D-Benzyl ester] (H-RWK([Trp-Arg])K(Lys(α,ε-(ArgTrp)2))[βAla]-OBn) | 6.7 µg/mL (≈ 3.47 µM) |
| CCCCCCCCCNC(=O)CCNC(=O)[C@H](CCCCNC(=O)[C@H](CCCCNC(=O)[C@H](Cc1c[nH]c2ccccc12)NC(=O)[C@@H](N)CCCNC(=N)N)NC(=O)[C@H](Cc1c[nH]c2ccccc12)NC(=O)[C@@H](N)CCCNC(=N)N)NC(=O)[C@H](CCCCNC(=O)[C@H](Cc1c[nH]c2ccccc12)NC(=O)[C@@H](N)CCCNC(=N)N)NC(=O)[C@H](Cc1c[nH]c2ccccc12)NC(=O)[C@@H](N)CCCNC(=N)N [(RW)4D-Nonylamine] (H-RWK([Trp-Arg])K(Lys(α,ε-(ArgTrp)2))[βAla]-X1) | 5.7 µg/mL (≈ 2.9 µM) |
